Reference: ChEMBL document CHEMBL3217728, “Searching for innovative quinolone-like scaffolds: synthesis and biological evaluation of 2,1-benzothiazine 2,2-dioxide derivatives” (2012)
Active and inactive are the calls of the source. The calls are words filed in the database; no cut-off is given here.

Tests used:
Enterococcus faecalis = test: Antibacterial activity against vancomycin-resistant Enterococcus faecalis 26A36; assay type: functional
Enterococcus faecium [1] = test: Antibacterial activity against ciprofloxacin, vancomycin-resistant Enterococcus faecium 26A23; assay type: functional
[2] = target: T1, Quinolone resistance protein NorA (Staphylococcus aureus) (UniProt P0A0J7); test: Inhibition of NorA efflux pump in Staphylococcus aureus SA-1199B assessed as inhibition of EtBr efflux at 50 uM
T1 sequence (whole entry): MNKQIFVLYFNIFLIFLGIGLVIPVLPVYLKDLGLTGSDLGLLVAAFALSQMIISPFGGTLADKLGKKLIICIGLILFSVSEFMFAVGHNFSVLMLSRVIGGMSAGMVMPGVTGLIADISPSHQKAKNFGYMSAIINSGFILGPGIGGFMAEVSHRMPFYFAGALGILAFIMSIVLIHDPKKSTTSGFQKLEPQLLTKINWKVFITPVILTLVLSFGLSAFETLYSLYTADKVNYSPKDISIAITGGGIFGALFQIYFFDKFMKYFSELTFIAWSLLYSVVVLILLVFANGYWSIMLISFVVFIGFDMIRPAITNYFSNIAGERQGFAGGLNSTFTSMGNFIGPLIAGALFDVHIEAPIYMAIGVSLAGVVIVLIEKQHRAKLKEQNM

[3] = Inhibition of DNA gyrase (unknown origin) by DNA super coiling assay
Escherichia coli = test: Antimicrobial activity against Escherichia coli ATCC 25922; assay type: functional
Pseudomonas aeruginosa = test: Antimicrobial activity against Pseudomonas aeruginosa ATCC 27853; assay type: functional
Klebsiella pneumoniae = test: Antimicrobial activity against Klebsiella pneumoniae ATCC 13833; assay type: functional
Proteus mirabilis = test: Antimicrobial activity against Proteus mirabilis CCUG 26767; assay type: functional
Staphylococcus aureus [4] = test: Antimicrobial activity against Staphylococcus aureus ATCC 25923; assay type: functional
Staphylococcus aureus [5] = test: Antimicrobial activity against methicillin-sensitive Staphylococcus aureus 21A; assay type: functional
Staphylococcus aureus [6] = test: Antimicrobial activity against ciprofloxacin, methicillin-resistant Staphylococcus aureus 25A; assay type: functional
[7] = test system: Staphylococcus epidermidis; test: Antibacterial activity against Staphylococcus epidermidis ATCC 14990; assay type: functional
Enterococcus faecium [8] = test: Antibacterial activity against Enterococcus faecium ATCC 19433; assay type: functional
Staphylococcus aureus [9] = test: Antimicrobial activity against norA-deficient Staphylococcus aureus SA-K1902; assay type: functional
Staphylococcus aureus [10] = test: Antimicrobial activity against norA-overexpressing Staphylococcus aureus SA-K2378; assay type: functional
Staphylococcus aureus [11] = test: Antimicrobial activity against wild type Staphylococcus aureus ATCC 25923; assay type: functional
[12] = target: T1, Quinolone resistance protein NorA (Staphylococcus aureus); test: Inhibition of NorA efflux pump in norA-overexpressing Staphylococcus aureus SA-K2378 assessed as reduction in ciprofloxacin MIC at 12.5 ug/ml by isobologram based checkerboard assay
[13] = target: T1, Quinolone resistance protein NorA (Staphylococcus aureus); test: Inhibition of NorA efflux pump in norA-overexpressing Staphylococcus aureus SA-K2378 assessed as reduction in ciprofloxacin MIC at 0.78 to 100 ug/ml by isobologram based checkerboard assay
Staphylococcus aureus [14] = test: Potentiation of ciprofloxacin-induced antibacterial effect against wild type Staphylococcus aureus ATCC 25923 at 0.78 to 100 ug/ml by isobologram based checkerboard assay; assay type: functional, organism-based
Staphylococcus aureus [15] = test: Potentiation of ciprofloxacin-induced antibacterial effect against norA-deficient Staphylococcus aureus SA-K1902 at 0.78 to 100 ug/ml by isobologram based checkerboard assay; assay type: functional, organism-based
[16] = target: T1, Quinolone resistance protein NorA (Staphylococcus aureus); test: Inhibition of NorA efflux pump in norA-overexpressing Staphylococcus aureus SA-K2378 assessed as reduction in ciprofloxacin MIC at 50 ug/ml by isobologram based checkerboard assay

| SMILES | MIC (Enterococcus faecalis) [µg/mL] | MIC (Enterococcus faecium [1]) [µg/mL] | inhibition [2] [%] | inhibition [3] | MIC (Escherichia coli) [µg/mL] | MIC (Pseudomonas aeruginosa) [µg/mL] | MIC (Klebsiella pneumoniae) [µg/mL] | MIC (Proteus mirabilis) [µg/mL] | MIC (Staphylococcus aureus [4]) [µg/mL] | MIC (Staphylococcus aureus [5]) [µg/mL] | MIC (Staphylococcus aureus [6]) [µg/mL] | MIC [7] [µg/mL] | MIC (Enterococcus faecium [8]) [µg/mL] | MIC (Staphylococcus aureus [9]) [µg/mL] | MIC (Staphylococcus aureus [10]) [µg/mL] | MIC (Staphylococcus aureus [11]) [µg/mL] | inhibition [13] | Activity (Staphylococcus aureus [14]) | Activity (Staphylococcus aureus [15]) | further results |
| --- | --- | --- | --- | --- | --- | --- | --- | --- | --- | --- | --- | --- | --- | --- | --- | --- | --- | --- | --- | --- |
| CN1CCN(c2cc3c(cc2N)C(=O)CS(=O)(=O)N3C2CC2)CC1 | > 128 | > 128 | 7 | inactive | > 128 | > 128 | > 128 | > 128 | > 128 | > 128 | > 128 | > 128 | > 128 | – | – | – | – | – | – | – |
| CC1C(=O)c2cc(N)c(N3CCN(C)CC3)cc2N(C2CC2)S1(=O)=O (stereo unspecified) | > 128 | > 128 | 27 | inactive | > 128 | > 128 | > 128 | > 128 | > 128 | > 128 | > 128 | > 128 | > 128 | > 100 | > 100 | > 100 | Dose-dependent effect | inactive | inactive | fold change (FC) [12]: 4 |
| COC(=O)[C@H]1[C@H]2C[C@@H]3c4[nH]c5cc(OC)ccc5c4CCN3C[C@H]2C[C@@H](OC(=O)c2cc(OC)c(OC)c(OC)c2)[C@@H]1OC [RESERPINE] | – | – | – | – | – | – | – | – | – | – | – | – | – | > 100 | > 100 | > 100 | Active | inactive | inactive | – |
| CNC(=O)C1=C(O)c2cc(N)c(N3CCN(C)CC3)cc2N(C2CC2)S1(=O)=O | > 128 | > 128 | 2 | inactive | > 128 | > 128 | > 128 | > 128 | > 128 | > 128 | > 128 | > 128 | > 128 | – | – | – | – | – | – | – |
| Fc1ccc([C@@H]2CCNC[C@H]2COc2ccc3c(c2)OCO3)cc1 [PAROXETINE] | – | – | – | – | – | – | – | – | – | – | – | – | – | > 100 | > 100 | > 100 | Active | inactive | inactive | – |
| CCOC(=O)C1(C)C(=O)c2cc(N)c(N3CCN(C)CC3)cc2N(C2CC2)S1(=O)=O (stereo unspecified) | > 128 | > 128 | 25 | inactive | > 128 | > 128 | > 128 | > 128 | > 128 | > 128 | > 128 | > 128 | > 128 | > 100 | > 100 | > 100 | Dose-dependent effect | inactive | inactive | fold change (FC) [16]: 4 |
| CCOC(=O)C1=C(O)c2cc(N)c(N3CCN(C)CC3)cc2N(C2CC2)S1(=O)=O | > 128 | > 128 | 0 | inactive | > 128 | > 128 | > 128 | > 128 | > 128 | > 128 | > 128 | > 128 | > 128 | – | – | – | – | – | – | – |
